Values after ≈ are worked out from the molar mass of the structure shown. Where two headings read alike, the source gives them in different places.
What was measured:
E. coli ATCC 25922 [1] = format: cell-based, Escherichia coli; conditions: E. coli ATCC 25922, FDA control strain; BMD with 5% Survanta lung surfactant; mode, or median where no mode, n=4 to 6; where n=2 differs the higher value
E. coli ATCC 25922 [2] = assay: microbe, parasite or virus in culture; format: cell-based, Escherichia coli; parameters: MIC, Survanta (5%) replicates: unit not given beside the values; conditions: for MIC, Survanta (5%) replicates: BMD with 5% Survanta lung surfactant; for MIC: Escherichia coli, E. coli ATCC 25922, n=2 to 6, mode or median
In short: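 Broth microdilution MIC in Mueller Hinton broth, 12-point 2-fold series from 128 or 64 down to 0.06 or 0.03 μg mL^−1, 5 × 10^5 CFU mL^−1 inoculum. Read visually after 18-20 h at 37 °C without shaking; n ≥ 6. Additional tests in CAMHB, and in MHB with 1% agarose.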

K. pneumoniae = assay: microbe, parasite or virus in culture; format: cell-based, Klebsiella pneumoniae; conditions: for MIC: Klebsiella pneumoniae
P. aeruginosa = assay: microbe, parasite or virus in culture; format: cell-based, Pseudomonas aeruginosa; parameters: MIC, Survanta (5%) replicates: unit not given beside the values; conditions: for MIC: Pseudomonas aeruginosa

## COc1cc(Cc2cnc(N)nc2N)cc(OC)c1OC [Trimethoprim]
E. coli ATCC 25922 [1]
  MIC, Survanta (5%): 1
E. coli ATCC 25922 [2]; E. coli ATCC 25922, FDA control strain, replicate 1
  MIC, Survanta (5%) replicates: 1
E. coli ATCC 25922 [2]; E. coli ATCC 25922, FDA control strain, replicate 2
  MIC, Survanta (5%) replicates: 1
E. coli ATCC 25922 [2]; E. coli ATCC 25922, FDA control strain, replicate 3
  MIC, Survanta (5%) replicates: 1
E. coli ATCC 25922 [2]; E. coli ATCC 25922, FDA control strain, replicate 4
  MIC, Survanta (5%) replicates: 1
E. coli ATCC 25922 [2]; E. coli ATCC 25922, FDA control strain, BMD with 50% human serum, mode, or median where no mode, n=4 to 6, where n=2 differs the higher value
  MIC, Serum (50%): 4
E. coli ATCC 25922 [2]; E. coli ATCC 25922, FDA control strain, BMD with 50% human serum, replicate 1
  MIC, Serum (50%) replicates: 4
E. coli ATCC 25922 [2]; E. coli ATCC 25922, FDA control strain, BMD with 50% human serum, replicate 2
  MIC, Serum (50%) replicates: 2
E. coli ATCC 25922 [2]; E. coli ATCC 25922, FDA control strain, BMD with 50% human serum, replicate 3
  MIC, Serum (50%) replicates: 4
E. coli ATCC 25922 [2]; E. coli ATCC 25922, FDA control strain, BMD with 50% human serum, replicate 4
  MIC, Serum (50%) replicates: 4
E. coli ATCC 25922 [2]; ATCC25922, read-out: MIC, SURVANTA (5%), MHB + 5% (v/v) lung surfactant
  MIC: 1 µg/mL
E. coli ATCC 25922 [2]; ATCC25922, read-out: MIC, Serum (50%), MHB + 50% (v/v) human serum
  MIC: 4 µg/mL
K. pneumoniae
  MIC, Serum (50%): 0.5
  MIC, Serum (50%) replicates: 0.5
  MIC, Survanta (5%): 1
K. pneumoniae; K. pneumoniae ATCC 700603, ESBL, OXA-2/SHV-18, BMD with 5% Survanta lung surfactant, mode, or median where no mode, n=4 to 6, where n=2 differs the higher value
  MIC, Survanta (5%): 4
K. pneumoniae; K. pneumoniae ATCC 700603, ESBL, OXA-2/SHV-18, BMD with 5% Survanta lung surfactant, replicate 1
  MIC, Survanta (5%) replicates: 4
K. pneumoniae; K. pneumoniae ATCC 700603, ESBL, OXA-2/SHV-18, BMD with 5% Survanta lung surfactant, replicate 2
  MIC, Survanta (5%) replicates: 2
K. pneumoniae; K. pneumoniae ATCC 700603, ESBL, OXA-2/SHV-18, BMD with 50% human serum, mode, or median where no mode, n=4 to 6, where n=2 differs the higher value
  MIC, Serum (50%): 32
K. pneumoniae; K. pneumoniae ATCC 700603, ESBL, OXA-2/SHV-18, BMD with 50% human serum, replicate 1
  MIC, Serum (50%) replicates: 32
K. pneumoniae; K. pneumoniae ATCC 700603, ESBL, OXA-2/SHV-18, BMD with 50% human serum, replicate 2
  MIC, Serum (50%) replicates: 16
K. pneumoniae; K. pneumoniae BAA-2146, NDM-1, BMD with 5% Survanta lung surfactant, mode, or median where no mode, n=4 to 6, where n=2 differs the higher value
  MIC, Survanta (5%): >64
K. pneumoniae; K. pneumoniae BAA-2146, NDM-1, BMD with 5% Survanta lung surfactant, replicate 1
  MIC, Survanta (5%) replicates: >64
K. pneumoniae; K. pneumoniae BAA-2146, NDM-1, BMD with 5% Survanta lung surfactant, replicate 2
  MIC, Survanta (5%) replicates: >64
K. pneumoniae; K. pneumoniae BAA-2146, NDM-1, BMD with 5% Survanta lung surfactant, replicate 3
  MIC, Survanta (5%) replicates: >64
K. pneumoniae; K. pneumoniae BAA-2146, NDM-1, BMD with 5% Survanta lung surfactant, replicate 4
  MIC, Survanta (5%) replicates: >64
K. pneumoniae; ATCC13883, read-out: MIC, Serum (50%)
  MIC: 0.5 µg/mL (≈ 1.72 µM)
K. pneumoniae; ATCC13883, read-out: MIC, Survanta (5%)
  MIC: 1 µg/mL (≈ 3.44 µM)
K. pneumoniae; ATCC700603, read-out: MIC, Serum (50%)
  MIC: 32 µg/mL (≈ 110 µM)
K. pneumoniae; ATCC700603, read-out: MIC, Survanta (5%)
  MIC: 4 µg/mL (≈ 13.8 µM)
K. pneumoniae; BAA2146, read-out: MIC, Survanta (5%)
  MIC: > 64 µg/mL
P. aeruginosa
  MIC, Serum (50%): >64
  MIC, Serum (50%) replicates: >64
  MIC, Survanta (5%): >64
  MIC, Survanta (5%) replicates: >64
P. aeruginosa; P. aeruginosa FADDI-070, MDR, PmxR, BMD with 5% Survanta lung surfactant, mode, or median where no mode, n=4 to 6, where n=2 differs the higher value
  MIC, Survanta (5%): >64
P. aeruginosa; P. aeruginosa FADDI-070, MDR, PmxR, BMD with 5% Survanta lung surfactant, replicate 1
  MIC, Survanta (5%) replicates: >64
P. aeruginosa; P. aeruginosa FADDI-070, MDR, PmxR, BMD with 5% Survanta lung surfactant, replicate 2
  MIC, Survanta (5%) replicates: >64
P. aeruginosa; P. aeruginosa FADDI-070, MDR, PmxR, BMD with 5% Survanta lung surfactant, replicate 3
  MIC, Survanta (5%) replicates: >64
P. aeruginosa; P. aeruginosa FADDI-070, MDR, PmxR, BMD with 5% Survanta lung surfactant, replicate 4
  MIC, Survanta (5%) replicates: >64
P. aeruginosa; P. aeruginosa FADDI-070, MDR, PmxR, BMD with 50% human serum, replicate 1
  MIC, Serum (50%) replicates: >64
P. aeruginosa; P. aeruginosa FADDI-070, MDR, PmxR, BMD with 50% human serum, replicate 2
  MIC, Serum (50%) replicates: 64
P. aeruginosa; P. aeruginosa FADDI-070, MDR, PmxR, BMD with 50% human serum, where n=2 differs the higher value is recorded
  MIC, Serum (50%): ≥64
P. aeruginosa; ATCC27853, read-out: MIC, Serum (50%)
  MIC: > 64 µg/mL
P. aeruginosa; ATCC27853, read-out: MIC, Survanta (5%)
  MIC: > 64 µg/mL
P. aeruginosa; read-out: MIC, Serum (50%)
  MIC: ≥ 64 µg/mL
P. aeruginosa; read-out: MIC, Survanta (5%)
  MIC: > 64 µg/mL

Source: publication PMC7311426, “An amphipathic peptide with antibiotic activity against multidrug-resistant Gram-negative bacteria” (Nature Communications, 2020)
